Assay results reported in article PMC6934184, “Selective DNA-PKcs inhibition extends the therapeutic index of localized radiotherapy and chemotherapy” (The Journal of Clinical Investigation, 2019).

Molecular target: T1, ULK1 (Homo sapiens, UniProt O75385)
T1 construct: purchased Thermo Fisher Scientific (Life Technologies) SelectScreen
Assay: SelectScreen LanthaScreen
Assay type: binding
Details: 1 µM
Procedure, shortened: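 SelectScreen broad panel; activity (Z'LYTE, Adapta) plus binding formats. ATP: Km app for CSF1R Z'LYTE; 10 for CAMK1 Adapta. Readout = % per kinase.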

T1 sequence (O75385 whole entry): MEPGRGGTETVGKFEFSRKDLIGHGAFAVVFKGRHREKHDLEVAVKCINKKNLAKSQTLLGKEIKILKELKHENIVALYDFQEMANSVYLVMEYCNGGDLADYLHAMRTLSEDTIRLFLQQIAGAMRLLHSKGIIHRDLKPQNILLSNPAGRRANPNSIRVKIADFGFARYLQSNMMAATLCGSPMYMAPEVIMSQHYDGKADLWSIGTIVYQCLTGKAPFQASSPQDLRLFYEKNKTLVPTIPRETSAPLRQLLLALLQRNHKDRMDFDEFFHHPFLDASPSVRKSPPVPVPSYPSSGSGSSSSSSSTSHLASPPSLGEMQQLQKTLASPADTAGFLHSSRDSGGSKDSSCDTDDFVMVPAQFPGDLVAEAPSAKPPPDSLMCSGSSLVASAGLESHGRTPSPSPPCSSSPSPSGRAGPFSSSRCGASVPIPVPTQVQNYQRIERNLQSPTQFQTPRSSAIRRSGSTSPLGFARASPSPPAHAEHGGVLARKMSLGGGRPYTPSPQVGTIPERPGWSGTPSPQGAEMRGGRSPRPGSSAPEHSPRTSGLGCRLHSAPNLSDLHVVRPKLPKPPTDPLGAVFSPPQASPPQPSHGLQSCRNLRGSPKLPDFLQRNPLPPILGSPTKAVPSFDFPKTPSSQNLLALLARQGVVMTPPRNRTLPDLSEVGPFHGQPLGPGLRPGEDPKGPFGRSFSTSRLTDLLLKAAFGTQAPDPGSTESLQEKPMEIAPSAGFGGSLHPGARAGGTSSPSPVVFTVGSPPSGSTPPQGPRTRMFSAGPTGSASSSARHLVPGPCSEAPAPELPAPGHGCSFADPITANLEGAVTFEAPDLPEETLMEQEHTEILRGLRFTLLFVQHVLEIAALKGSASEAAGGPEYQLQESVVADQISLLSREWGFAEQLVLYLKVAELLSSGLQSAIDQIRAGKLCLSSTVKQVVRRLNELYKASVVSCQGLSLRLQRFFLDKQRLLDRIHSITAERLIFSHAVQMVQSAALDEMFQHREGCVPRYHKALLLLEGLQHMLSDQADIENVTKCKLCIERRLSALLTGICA

## CN(C(=O)CN1CCOCC1)c1ccc2sc3c(-c4cccc5c(=O)cc(N6CC7CCC(C6)O7)oc45)cccc3c2c1 [NU5455]
  % displacement: 1.8%
